Test results taken from patent US8609585B2 (priority 2008, dated 2013).
Read-outs that look alike come from different tables or passages of the source.

Key:
Assay type in all cases: in vivo
[1] = system: Phytophthora infestans, pathogen of tomato late blight; conditions: foliage application
[2] = system: Pythium ultimum, pathogen of cucumber damping-off; test: Cucumber damping-off control test, seed treatment (Test Example 2)
Protocol: (§1) Control value=100(A−B)/A “Equation 1”
Generally, the control value expected for the case in which the given two kinds of active ingredient compounds are mixed and used for the treatment, the so-called control value expectation is calculated from the following Colby's calculating equation. E=X+Y−(X×Y)/100 “Equation 2”
E: Control value (%) expected for the case in which active ingredient compound A in M ppm or in M g per 100 kg of seeds and active ingredient compound B in N ppm or in N g per 100 kg of seeds are mixed and used for treatment (hereinbelow referred to as “control value expectation”) “Synergetic effect(%)”=(Actual control value)×100/(Control value expectation)
An acetone solution of the compound (1b) and an acetone solution of ethaboxam were mixed to prepare mixed liquids containing the compound (1b) and ethaboxam in predetermined concentration. These mixed liquids were adhered on the surface of cucumber (Sagamihanjiro) seeds and allowed to stand still overnight to obtain treated seeds. A plastic pot was filled with sandy soil and the treated seeds were disseminated on it. Then the seeds were covered with sandy soil which had been mixed with a bran medium on which Pythium ultimum, pathogen of cucumber damping-off, had been allowed to grow. They were irrigated and allowed to grow at 18° C. under humidity for 13 days, and thereafter control effect was checked. The incidence of disease was calculated by Equation 3 and the control value was calculated by Equation 1 based on the incidence of disease.
As a comparison, acetone solutions containing the compound (1b) in the predetermined concentration and an acetone solution containing ethaboxam in the predetermined concentration were prepared and subjected to similar tests. Incidence of disease=(Number of no emerging seedlings and number of seedlings in which development of disease was observed)×100/(Number of total disseminated seeds) “Equation 3”

[3] = system: Plasmopara viticola, pathogen of grape downy mildew; test: Grape downy mildew control test, foliage application (Test Example 3)
Excerpt: as §1
A plastic pot was filled with sandy soil, and grape (Berry A) was then disseminated. The grape was allowed to grow in a green house for 40 days. A wettable powder of the compound (1b) and a wettable powder of ethaboxam were respectively diluted with water and then tank-mixed so as to prepare tank-mixed liquids containing compound (1b) and ethaboxam in predetermined concentration. The tank-mixed liquids were subjected to foliage application such that they could be sufficiently adhered to the underside of the leaves of the aforementioned grape plants. After the foliage application, the plants were air-dried. Thereafter, an aqueous suspension of sporangia of Plasmopara viticola, pathogen of grape downy mildew, was sprayed on the grape plants to inoculate the pathogen. They were placed at 23° C. under high humidity for one day after the inoculation, cultured in a greenhouse at 23° C. for 5 days. The grape plants were thereafter placed at 23° C. under high humidity for one day and infected area was checked.
As a comparison, the respective wettable powders described above were diluted with water in predetermined concentration so as to prepare compound (1b) liquids and a ethaboxam liquid respectively and they were subjected to similar disease control test. In order to calculate the control value, the incidence of disease was also determined in the case in which the plants had not been treated with the agent. The relative incidence of disease of each treated area was determined as the incidence of disease of the area assuming that the incidence of disease of untreated area was represented as 100, and the control value was calculated by Equation 1 based on the incidence of disease thus determined.

| Structure (SMILES) | Actual control value ([1]; ethaboxam 0.4 ppm alone) | Actual control value ([2]; ethaboxam 10 g ai/100 kg-seed alone) | Actual control value ([3]; ethaboxam 0.4 ppm alone) | Actual control value ([3]; ethaboxam 2 ppm alone) | Actual control value ([1]; compound (1b) 10 ppm alone) | Actual control value ([1]; compound (1b) 50 ppm alone) | Actual control value ([2]; compound (1b) 5 g ai/100 kg-seed alone) | Actual control value ([2]; compound (1b) 10 g ai/100 kg-seed alone) | Actual control value ([2]; compound (1b) 20 g ai/100 kg-seed alone) | Actual control value ([3]; compound (1b) 2 ppm alone) |
| --- | --- | --- | --- | --- | --- | --- | --- | --- | --- | --- |
| CCNc1nc(CC)c(C(=O)NC(C#N)c2cccs2)s1 (stereo not shown) [Ethaboxam, ethaboxam, reference compound] | 10% | 73% | 1% | 35% |  |  |  |  |  |  |
| CNC(=O)C(OC)c1ccccc1COc1cc(C)ccc1C (racemic) [Compound (1b)] |  |  |  |  | 5% | 25% | 6.7% | 6.7% | 13% | 2% |
